The values below are quoted from earlier work in patent US20030084473A1, “Non-transgenic herbicide resistant plants” (priority 2001, published 2003).

In general, Km refers to the substrate concentration at which the rate is half of its maximum.

This data set addresses wild-type EPSPS from E. coli (Escherichia coli, UniProt P0A6D3). As to conditions: read-out: apparent Km for PEP.

wild-type EPSPS from E. coli, sequence (P0A6D3 whole entry): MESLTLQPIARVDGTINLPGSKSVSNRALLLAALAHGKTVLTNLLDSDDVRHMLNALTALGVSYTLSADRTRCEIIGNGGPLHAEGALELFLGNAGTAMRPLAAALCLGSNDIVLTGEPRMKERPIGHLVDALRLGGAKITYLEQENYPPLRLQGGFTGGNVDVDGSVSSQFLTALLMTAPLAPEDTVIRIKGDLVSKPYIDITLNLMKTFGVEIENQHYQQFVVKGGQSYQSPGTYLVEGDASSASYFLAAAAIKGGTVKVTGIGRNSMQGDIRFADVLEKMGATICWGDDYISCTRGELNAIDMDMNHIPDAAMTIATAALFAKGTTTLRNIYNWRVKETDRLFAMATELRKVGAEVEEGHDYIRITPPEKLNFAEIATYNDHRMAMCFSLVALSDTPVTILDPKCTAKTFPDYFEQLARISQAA

As to `C=C(OP(=O)(O)O)C(=O)O` [PEP, phosphoenolpyruvic acid], the Km was 10 µM.
